This note sets out measurements from ChEMBL document CHEMBL1201862, “PubChem BioAssay data set” (2004).

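Exposure lasted 48 hours, with cells grown in 96-well plates and compounds tested at five concentrations. GI50 marks 50% less growth.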 Activity calls are given as the source filed them. No stated cut-off is given here; in the data, active = GI50 up to about 1.1 µM and inactive = higher.

Some test systems named below: 786-0; CAKI-1; CCRF-CEM; COLO 205; DU-145; HCT-15; HL-60; KM12; Malme-3M; NCI-H23; NCI/ADR-RES; OVCAR-3; RXF 393; SF-268; SF-295; SW-620; U-251; UO-31; A498; MDA-MB-435.
Common to all, as to assay: DTP human tumour cell line panel, 48 h

A word on the GI50: it is the concentration at which growth is held to half of that of the control.

Regarding `N#C/C(=C\c1cc(Br)c(O)c(Br)c1)c1cccnc1`, the GI50 is 10.1 µM (inactive) in the assay with 786-0; 35.7 µM (inactive) in the assay with CAKI-1; 18.2 µM (inactive) with CCRF-CEM; 22.8 µM (inactive) with COLO 205; > 100 µM (inactive) in the assay on DU-145; 17.7 µM in the assay on HCT-15. Further, the GI50 in the assay on HL-60 is 27 µM (inactive); in the assay on KM12, 27.2 µM (inactive); with Malme-3M, 17.2 µM (inactive); with NCI-H23, 21 µM (inactive); with NCI/ADR-RES, 24 µM (inactive); in the assay with OVCAR-3, 21 µM (inactive). Also, the GI50 in the assay on RXF 393 was 41.3 µM (inactive); in the assay on SF-268, 33.4 µM (inactive); in the assay on SF-295 it was 18.5 µM (inactive); with SW-620, 28.8 µM (inactive); in the assay on U-251, 16.7 µM (inactive); in the assay on UO-31, 22.1 µM (inactive).

Take `Cn1c(N)nc2c(nc(OCc3ccccc3)n2C2OC(CO)C(O)C2O)c1=O` (configuration not stated): the GI50 in the assay on 786-0, in the assay on A498, with CAKI-1, with CCRF-CEM, in the assay on COLO 205 and in the assay on DU-145 was > 100 µM (inactive) in each case. Besides, the GI50 in the assay with HL-60, with KM12, in the assay on MDA-MB-435, in the assay with Malme-3M, in the assay on OVCAR-3 and with RXF 393 was > 100 µM (inactive) each time. Moreover, the GI50 in the assay on SF-268, in the assay on SF-295, with SW-620, with U-251 and in the assay with UO-31 was > 100 µM (inactive) each time.

`C[C@]12CCC(=O)C=C1CC[C@@H]1[C@@H]2CC[C@]2(C)C(=O)NC(=O)C[C@@H]12`: the GI50 was > 100 µM (inactive) in the assay with 786-0; > 100 µM (inactive) in the assay on A498; > 100 µM (inactive) in the assay with CAKI-1; > 100 µM (inactive) in the assay on CCRF-CEM; > 100 µM (inactive) in the assay with COLO 205; over 100 µM in the assay on HCT-15. For the same molecule, the GI50 with HL-60, in the assay with KM12, with Malme-3M, in the assay with NCI-H23, in the assay with OVCAR-3 and with RXF 393 was > 100 µM (inactive) each time. The GI50 in the assay with SF-268, in the assay on SF-295, in the assay on SW-620, in the assay on U-251 and with UO-31 was > 100 µM (inactive) throughout.

On to `CN(C(=O)c1cc2c(s1)sc1c(=O)n(C)c3ccccc3c12)c1ccccc1`, for which the GI50 with 786-0 is 5.27 µM (inactive); in the assay on CAKI-1, 7.41 µM (inactive); in the assay on CCRF-CEM, 2.74 µM (inactive); in the assay with COLO 205, > 100 µM (inactive); in the assay with DU-145 it was 69.8 µM (inactive); with HCT-15, 1.72 µM. In addition, the GI50 with KM12 was 0.729 µM (active); with MDA-MB-435, 0.828 µM (active); in the assay on Malme-3M, 6.56 µM (inactive); in the assay with NCI-H23, 7.73 µM (inactive); with NCI/ADR-RES it was 4.54 µM (inactive); in the assay on OVCAR-3, 7.83 µM (inactive). In addition, the GI50 in the assay on RXF 393 was 21.8 µM (inactive); in the assay on SF-295, 2.25 µM (inactive); in the assay with U-251, 10.9 µM (inactive); in the assay with UO-31, 6.7 µM (inactive).

For the molecule `COc1cccc(-c2cc(C(=O)Nc3ccc(Cl)cc3)nc(N)n2)c1`, the GI50 is 55 µM (inactive) in the assay with 786-0; 61.9 µM (inactive) with A498; > 100 µM (inactive) with CAKI-1; > 100 µM (inactive) in the assay on CCRF-CEM; 21.4 µM (inactive) in the assay on COLO 205; 41.5 µM in the assay with HCT-15. Further, the GI50 was 32.7 µM (inactive) in the assay with HL-60; 43.7 µM (inactive) in the assay with KM12; 57.7 µM (inactive) in the assay on Malme-3M; 75 µM (inactive) with NCI-H23; 35.3 µM (inactive) with OVCAR-3; 39.4 µM (inactive) with RXF 393. In addition, the GI50 in the assay on SF-268 was 65.2 µM (inactive); in the assay with SF-295 it was 87.9 µM (inactive); in the assay on SW-620 it was 36.7 µM (inactive); with U-251, 60.8 µM (inactive); in the assay with UO-31 it was > 100 µM (inactive).

For the molecule `CCNC(=O)C#CC(=O)NCC`, the GI50 is > 100 µM (inactive) in the assay with 786-0; > 10 µM (inactive) with A498; > 100 µM (inactive) with CAKI-1; > 46.1 µM (inactive) in the assay with CCRF-CEM; 44.6 µM (inactive) in the assay with COLO 205; over 42.6 µM with HCT-15. The GI50 in the assay on HL-60 was > 39.5 µM (inactive); in the assay with KM12, > 100 µM (inactive); in the assay with Malme-3M it was > 10 µM (inactive); in the assay on NCI-H23, > 100 µM (inactive); in the assay with OVCAR-3 it was > 100 µM (inactive); with RXF 393, > 10 µM (inactive). Further, the GI50 was 53.7 µM (inactive) in the assay on SF-268; > 100 µM (inactive) in the assay with SF-295; > 48 µM (inactive) in the assay on SW-620; > 91.4 µM (inactive) in the assay on U-251; > 100 µM (inactive) with UO-31.

For the molecule `CN(C)CCCSc1c2ccccc2nc2cc(NCC(=O)Nc3ccccc3-c3ccccc3NC(=O)CNc3ccc4c(SCCCN(C)C)c5ccccc5nc4c3)ccc12`, the GI50 was > 100 µM (inactive) in the assay on 786-0; > 100 µM (inactive) with A498; > 100 µM (inactive) in the assay with CAKI-1; 25.3 µM (inactive) with CCRF-CEM; 45.1 µM (inactive) in the assay on COLO 205; over 100 µM in the assay on HCT-15. For the same molecule, the GI50 with HL-60 is 18.3 µM (inactive); in the assay with KM12, 84.3 µM (inactive); in the assay with Malme-3M, 59.4 µM (inactive); in the assay on NCI-H23 it was > 100 µM (inactive); in the assay on OVCAR-3, > 100 µM (inactive); in the assay with RXF 393, > 100 µM (inactive). The GI50 in the assay on SF-268, with SF-295, in the assay on SW-620, in the assay on U-251 and in the assay with UO-31 was > 100 µM (inactive) in each case.

Consider `O=C1Nc2cc(Cl)ccc2N=CC1NC(=O)C(c1ccccc1)c1ccccc1Cl` (configuration not stated), for which the GI50 is > 100 µM (inactive) in the assay with 786-0; > 100 µM (inactive) with A498; > 100 µM (inactive) in the assay on CAKI-1; > 100 µM (inactive) with CCRF-CEM; > 100 µM (inactive) with COLO 205; over 100 µM in the assay with HCT-15. Moreover, the GI50 in the assay on HL-60, in the assay on KM12, in the assay with Malme-3M, in the assay on NCI-H23, in the assay on OVCAR-3 and in the assay on RXF 393 was > 100 µM (inactive) in each case. The GI50 with SF-268, in the assay with SF-295, in the assay with SW-620, with U-251 and with UO-31 was > 100 µM (inactive) in each case.

`CCN(CC)C(=O)COc1cc2c(O)c3c(O)c(C)c4c(c13)C(=O)C(C)(OC=CC(OC)C(C)C(OC(C)=O)C(C)C(O)C(C)C(O)C(C)C=CC=C(C)C(=O)N2)O4` (configuration not stated): the GI50 is > 100 µM (inactive) in the assay on 786-0; > 100 µM (inactive) with A498; > 100 µM (inactive) in the assay with CAKI-1; > 100 µM (inactive) with CCRF-CEM; > 100 µM (inactive) in the assay with DU-145; over 100 µM in the assay with HCT-15. For the same molecule, the GI50 with KM12, in the assay with Malme-3M, with NCI-H23, with NCI/ADR-RES, in the assay on OVCAR-3 and in the assay with RXF 393 was > 100 µM (inactive) throughout. The GI50 with SF-268, in the assay on SF-295, in the assay on SW-620, with U-251 and with UO-31 was > 100 µM (inactive) in each case.

In the case of `Clc1ccc(-n2nnc(C3=NCCCN3)c2-c2ccccc2)cc1`, the GI50 with 786-0 is > 100 µM (inactive); in the assay on A498 it was > 100 µM (inactive); in the assay on CAKI-1, > 100 µM (inactive); with CCRF-CEM, > 100 µM (inactive); in the assay on COLO 205, 67.3 µM (inactive); with HCT-15, over 100 µM. Besides, the GI50 in the assay on HL-60, in the assay on KM12, with Malme-3M, in the assay on NCI-H23, in the assay on OVCAR-3 and in the assay on RXF 393 was > 100 µM (inactive) each time. For the same molecule, the GI50 in the assay with SF-268 is > 100 µM (inactive); in the assay on SF-295, > 100 µM (inactive); in the assay with SW-620, > 100 µM (inactive); in the assay with U-251, > 100 µM (inactive); in the assay on UO-31 it was 88.7 µM (inactive).

Turning to `CCOc1cc2c(cc1O)C(N)C[C@@H]1[C@@H]2CC[C@]2(C)[C@@H](O)CC[C@@H]12` (some centres not stated), the GI50 was 40.3 µM (inactive) with 786-0; 34.8 µM (inactive) in the assay on A498; 32.9 µM (inactive) in the assay with CAKI-1; 22.6 µM (inactive) in the assay on CCRF-CEM; 52.7 µM (inactive) with COLO 205; 45.7 µM in the assay on HCT-15. The GI50 in the assay on HL-60 is 18.6 µM (inactive); in the assay on KM12 it was 43.7 µM (inactive); in the assay on NCI-H23 it was 49.5 µM (inactive); in the assay with NCI/ADR-RES, > 100 µM (inactive); in the assay on RXF 393, 56.5 µM (inactive); in the assay with SF-268 it was 61.7 µM (inactive). In addition, the GI50 was 32.7 µM (inactive) with SF-295, 34 µM (inactive) in the assay with SW-620, 37.9 µM (inactive) in the assay on U-251 and 36.9 µM (inactive) with UO-31.

Take `O=C(O)C1CCCCC1C(=O)Nn1cnnc1` (configuration not stated): the GI50 in the assay on 786-0 was > 100 µM (inactive); in the assay on CCRF-CEM it was > 100 µM (inactive); in the assay with COLO 205, > 100 µM (inactive); in the assay on DU-145 it was > 100 µM (inactive); with HCT-15, over 100 µM; in the assay with KM12, > 100 µM (inactive). Also, the GI50 with MDA-MB-435, in the assay with NCI-H23, with NCI/ADR-RES, in the assay on OVCAR-3, in the assay with RXF 393 and in the assay with SF-268 was > 100 µM (inactive) throughout. The GI50 in the assay with SF-295, with SW-620, in the assay on U-251 and in the assay with UO-31 was > 100 µM (inactive) throughout.
